Laboratory results reported in patent US8802700B2 (Vertex Pharmaceuticals Incorporated, priority 2010, dated 2014).

What follows are molecules tested against T1, ΔF508-CFTR (Homo sapiens, UniProt P13569, DEL508-508) (assay: Membrane potential optical assay (FRET voltage-sensor dyes, VIPR), identification of potentiator compounds). Conditions: Table 3; assay not given.
T1 construct: expressed in transfected cells
Format: cell-based
How it was run: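 Potentiator screen measured membrane potential via FRET between CC2-DMPE donor and DiSBAC2(3), read on VIPR II. Compound went in with the first addition of chloride-free gluconate bath; cells were ΔF508-CFTR-expressing NIH3T3 mouse fibroblasts, temperature-corrected at 27 °C for 24 h.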

T1 sequence (P13569 with tags, fused parts or gaps DEL508-508): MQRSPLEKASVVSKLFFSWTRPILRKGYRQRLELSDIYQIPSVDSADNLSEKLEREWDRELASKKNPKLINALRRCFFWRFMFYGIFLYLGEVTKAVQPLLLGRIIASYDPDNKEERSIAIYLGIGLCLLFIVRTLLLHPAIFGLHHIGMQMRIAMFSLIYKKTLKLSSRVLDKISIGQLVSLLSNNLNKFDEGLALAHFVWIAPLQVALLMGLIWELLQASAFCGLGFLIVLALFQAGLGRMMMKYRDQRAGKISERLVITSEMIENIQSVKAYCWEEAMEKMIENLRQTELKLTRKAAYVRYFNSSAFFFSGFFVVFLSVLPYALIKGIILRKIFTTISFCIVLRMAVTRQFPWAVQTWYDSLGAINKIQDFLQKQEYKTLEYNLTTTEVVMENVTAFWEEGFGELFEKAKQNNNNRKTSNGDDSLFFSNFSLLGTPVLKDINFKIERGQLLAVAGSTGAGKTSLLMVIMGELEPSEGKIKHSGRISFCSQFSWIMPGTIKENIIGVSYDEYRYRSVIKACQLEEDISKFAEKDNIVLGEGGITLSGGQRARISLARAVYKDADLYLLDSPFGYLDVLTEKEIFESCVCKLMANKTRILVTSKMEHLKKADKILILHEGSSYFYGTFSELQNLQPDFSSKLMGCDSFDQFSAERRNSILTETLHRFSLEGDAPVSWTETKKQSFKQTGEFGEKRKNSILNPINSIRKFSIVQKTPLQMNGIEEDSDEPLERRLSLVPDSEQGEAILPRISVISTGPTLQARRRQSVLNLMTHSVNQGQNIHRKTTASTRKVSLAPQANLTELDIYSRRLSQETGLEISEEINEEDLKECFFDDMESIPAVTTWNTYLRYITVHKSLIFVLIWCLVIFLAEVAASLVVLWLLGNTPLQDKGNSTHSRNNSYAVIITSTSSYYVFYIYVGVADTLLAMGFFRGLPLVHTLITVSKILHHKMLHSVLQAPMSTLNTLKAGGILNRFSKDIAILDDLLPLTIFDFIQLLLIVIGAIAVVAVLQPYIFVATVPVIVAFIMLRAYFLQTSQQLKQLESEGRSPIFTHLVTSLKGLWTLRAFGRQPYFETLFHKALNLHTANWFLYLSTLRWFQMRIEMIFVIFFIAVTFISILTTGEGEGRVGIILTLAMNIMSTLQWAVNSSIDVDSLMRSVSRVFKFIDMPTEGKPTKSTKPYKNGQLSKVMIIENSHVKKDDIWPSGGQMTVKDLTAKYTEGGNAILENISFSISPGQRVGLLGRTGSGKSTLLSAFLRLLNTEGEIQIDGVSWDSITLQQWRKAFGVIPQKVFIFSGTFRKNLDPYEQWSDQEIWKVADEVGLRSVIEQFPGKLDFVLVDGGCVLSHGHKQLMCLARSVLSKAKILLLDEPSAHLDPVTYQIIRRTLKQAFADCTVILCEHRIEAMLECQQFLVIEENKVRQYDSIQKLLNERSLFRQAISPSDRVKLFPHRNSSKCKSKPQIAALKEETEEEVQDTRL

EC50 [µM]	SMILES
< 10	COc1ccc(OC)c(-c2ccccc2NC(=O)c2c[nH]c3ccccc3c2=O)c1 [Compound 361, N-[2-(2,5-dimethoxyphenyl)phenyl]-4-oxo-1H-quinoline-3-carboxamide]

Same assay, conditions: Table 3; assay not given; read-out: % Activity (% Efficacy, relative efficacy)

Emax [%]	SMILES
< 25	O=C(Nc1ccc(Cl)cn1)c1c[nH]c2ccccc2c1=O [Compound 170, N-(5-chloro-2-pyridyl)-4-oxo-1H-quinoline-3-carboxamide]
< 25	N#Cc1cc(Cl)cc(Cl)c1NC(=O)c1c[nH]c2ccccc2c1=O [Compound 369, N-(2,4-dichloro-6-cyano-phenyl)-4-oxo-1H-quinoline-3-carboxamide]
25 to 100	COc1cc(NC(=O)c2c[nH]c3ccccc3c2=O)cc(C(F)(F)F)c1 [Compound 691, N-[3-methoxy-5-(trifluoromethyl)phenyl]-4-oxo-1H-quinoline-3-carboxamide]
25 to 100	Cc1cccc2[nH]cc(C(=O)Nc3ccc(OC(C)C)c(O)c3)c(=O)c12 [Compound 701, N-(3-hydroxy-4-isopropoxy-phenyl)-5-methyl-4-oxo-1H-quinoline-3-carboxamide]
25 to 100	O=C(Nc1cc2[nH]ccc2cc1-c1cccnc1)c1c[nH]c2ccccc2c1=O [Compound 65, 4-oxo-N-[5-(3-pyridyl)-1H-indol-6-yl]-1H-quinoline-3-carboxamide]
25 to 100	CC(C)(C)c1cc(C(C)(C)C)c(NC(=O)c2c[nH]c3cccc(C(F)(F)F)c3c2=O)cc1O [Compound 520, N-(5-hydroxy-2,4-ditert-butyl-phenyl)-4-oxo-5-(trifluoromethyl)-1H-quinoline-3-carboxamide]
25 to 100	COc1ccc(Cl)cc1-c1cc2cc[nH]c2cc1NC(=O)c1c[nH]c2ccccc2c1=O [Compound 1, N-[5-(5-chloro-2-methoxy-phenyl)-1H-indol-6-yl]-4-oxo-1H-quinoline-3-carboxamide]
25 to 100	CC(C)n1cc(C(=O)Nc2ccccc2C(C)(C)C)c(=O)c2ccccc21 [Compound 473, 1-isopropyl-4-oxo-N-(2-tert-butylphenyl)-1H-quinoline-3-carboxamide]
25 to 100	O=C(Nc1cc(O)c(C(F)(F)F)cc1F)c1c[nH]c2ccccc2c1=O [Compound 501, N-[2-fluoro-5-hydroxy-4-(trifluoromethyl)phenyl]-4-oxo-1H-quinoline-3-carboxamide]
> 100	COc1ccc(OC)c(-c2ccccc2NC(=O)c2c[nH]c3ccccc3c2=O)c1 [Compound 361, N-[2-(2,5-dimethoxyphenyl)phenyl]-4-oxo-1H-quinoline-3-carboxamide]
25 to 100	O=C(Nc1cccc(C(F)(F)F)c1)c1c[nH]c2ccccc2c1=O [Compound 164, 4-oxo-N-[3-(trifluoromethyl)phenyl]-1H-quinoline-3-carboxamide]
25 to 100	COc1cccc2[nH]cc(C(=O)Nc3ccc4cc[nH]c4c3)c(=O)c12 [Compound 479, N-(1H-indol-6-yl)-5-methoxy-4-oxo-1H-quinoline-3-carboxamide]
< 25	O=C(Nc1cccc2ncccc12)c1c[nH]c2ccccc2c1=O [Compound 191, 4-oxo-N-(5-quinolyl)-1H-quinoline-3-carboxamide]
25 to 100	CC(C)(C)c1cc2ccc(NC(=O)c3c[nH]c4ccccc4c3=O)cc2[nH]1 [Compound 320, 4-oxo-N-(2-tert-butyl-1H-indol-6-yl)-1H-quinoline-3-carboxamide]
25 to 100	CC1(c2ccc(NC(=O)c3c[nH]c4cccc(O)c4c3=O)cc2)COC1 [Compound 529, 5-hydroxy-N-[4-(3-methyloxetan-3-yl)phenyl]-4-oxo-1H-quinoline-3-carboxamide]
25 to 100	CC1CCN(c2ccccc2NC(=O)c2c[nH]c3ccccc3c2=O)CC1 [Compound 372, N-[2-(4-methyl-1-piperidyl)phenyl]-4-oxo-1H-quinoline-3-carboxamide]
> 100	COC(=O)C1CCCCN1c1ccc(NC(=O)c2c[nH]c3ccccc3c2=O)c(C(F)(F)F)c1 (stereo not shown) [Compound 492, methyl 1-[4-[(4-oxo-1H-quinolin-3-yl)carbonylamino]-3-(trifluoromethyl)phenyl]piperidine-2-carboxylate]
25 to 100	CC(C)c1c[nH]c2cc(NC(=O)c3c[nH]c4ccccc4c3=O)ccc12 [Compound 357, N-(3-isopropyl-1H-indol-6-yl)-4-oxo-1H-quinoline-3-carboxamide]
